These compounds were tested on Plasmodium falciparum (assay: GSK_TCMDC: Inhibition of Plasmodium falciparum 3D7 in whole erythrocytes, using parasite LDH activity as an index of growth.). Settings: Plasmodium falciparum, 3D7.
Format: functional, organism-based

Structure (SMILES) | XC50
Cc1cc(O)nc(NC#N)n1 | 0.166 µM
Cc1nc2ccccc2n1C1CC2CCC(C1)N2Cc1nccn1-c1ccccc1 (stereo not drawn) | 0.366 µM
CCc1ccc(Cc2cnc3nc(N)nc(N)c3c2C)cc1 | 0.202 µM
COc1ccc2nccc([C@@H](O)CN3CCC(NCc4cc5c(Cl)cc(Cl)cc5[nH]4)CC3)c2c1 | 0.0585 µM
Cc1cccc2nc(-c3ccc(-c4cccc(CNCCCNS(C)(=O)=O)c4)cc3)[nH]c12 | 1.22 µM
O=C(Nc1ccc(C(F)(F)F)cc1)NC1CCN(CCCCCNC(=O)C2CC2c2ccc(Cl)c(Cl)c2)CC1 (stereo not drawn) | 0.626 µM
O=C(N1CCN(c2cccc(C(F)(F)F)c2)CC1)C(Cl)(Cl)Cl | 0.887 µM
COc1cccc(-c2ccc3c(-c4ccc(F)cc4)cnc(N)c3c2)c1 | 0.807 µM
O=C(/C=C/c1ccc(Cl)c(Cl)c1)NCCCCCN1CCC(NC(=O)c2ccc(F)cc2)CC1 | 0.706 µM
CN(C)c1ccc(C=Cc2nc(=O)c3ccccc3o2)cc1 | 0.0446 µM
O=S(=O)(Nc1ccc(CCN2CCCCC2CCN2CCCC2)cc1)c1ccc(-c2ccccc2)cc1 (stereo not drawn) | 0.926 µM
Fc1cccc(-c2ccc3c(c2)CC(NCc2c[nH]c4cnccc24)C3)c1 (stereo not drawn) | 0.48 µM
COc1ccc(NC(=O)CCNc2cc(C)nc(NCCc3ccccc3)n2)cc1 | 1.16 µM
Nc1c2ccccc2nc2ccc(Cl)cc12 | 0.805 µM
COc1ccc(O)c(CN2CCN(c3cc(C)ccc3C)CC2)c1 | 1.01 µM
Cc1nc2nc(N)nc(N)c2c(C)c1Cc1cccc(C#N)c1 | 0.924 µM
O=C(CCCCCNC(=O)c1ccc(O)c(-c2ccc(Cl)c(Cl)c2)c1)NCc1cccc2ccccc12 | 0.762 µM
CCCCCCCN1CC[C@@H](C[C@H](N)Cc2ccnc3ccc(OC)cc23)[C@@H](CC)C1 | 1.07 µM
Cc1ccc2nc(C)cc(Nc3ccccc3O)c2c1 | 0.791 µM
CN(C)CCCOc1ccc(CNCc2cccc(Oc3ccc(Cl)cc3)c2)cc1 | 0.824 µM
Cc1c(F)cc(C(=O)NC2CC2)cc1-c1ccc2c(cnn2S(=O)(=O)c2ccc(C#N)cc2)c1 | 0.1 µM
O=C(Nc1cccc(CN2CCCN(Cc3cccc(O)c3)CC2)c1)c1cc2ccccc2s1 | 0.365 µM
CN(C)c1ccc(/C=C2\S/C(=N\c3ccccc3)N(c3ccccc3)C2=O)cc1[N+](=O)[O-] | 0.778 µM
COc1cccc(C(=O)Nc2ccc(Nc3nc(C)cc(N(C)C)n3)cc2)c1OC | 1.02 µM

Structure (SMILES) | XC50
CCC1CN2CCc3cc(OC)c(OC)cc3C2CC1CC1NCCc2cc(OC)c(OC)cc21 (stereo not drawn) | 0.145 µM
CCOc1cc(C(=O)NCCN(CC)c2cccc(C)c2)ccc1-c1nc2cc(Cl)ccc2[nH]1 | 0.809 µM
Cc1ccc2c(C3=CCN(CCCCC4(C)C(=O)Nc5ccccc54)CC3)c(C)[nH]c2c1 (stereo not drawn) | 0.374 µM
COCCCNc1sc(S(=O)(=O)c2ccccc2)nc1S(=O)(=O)c1ccc(C)cc1 | 0.802 µM
COc1ccc(CN(C)CCCc2ccc(NC(=O)c3cc4ccccc4[nH]3)cc2)cc1OC | 0.725 µM
COc1ccc2ncc(Cl)c([C@@H](O)CN3CCC(NCc4cc5c(cn4)OCCO5)CC3)c2c1 | 0.0595 µM
O=C(NCCCCCN1CCC(c2c[nH]c3ccccc23)CC1)Nc1cccc(Br)c1 | 1.11 µM
CC(Oc1ccc(Cl)cc1)C(=O)NCCC1CCN(CCCCCNC(=O)/C=C/c2ccc(Cl)c(Cl)c2)CC1 (stereo not drawn) | 1.02 µM
COc1ccc2nccc(N3CCC(CCNCc4ccc5c(n4)NC(=O)CS5)CC3)c2n1 | 0.227 µM
CCNC(=O)N[C@@H]1CN[C@@H](C#Cc2cc3c(Nc4ccc(OCc5cccc(F)c5)c(Cl)c4)ncnc3s2)C1 | 1.01 µM
Nc1c(I)cc(C(=O)Nc2ccc3nc4c(c(N)c3c2)CCCC4)cc1I | 0.143 µM
CCCC(=O)Nc1ccc(OCCCN(Cc2cccc(C(F)(F)F)c2)c2ccc(C#N)c(C(F)(F)F)c2)cc1 | 1.09 µM
N#C/N=C(\NCCCCCCCCN/C(=N\C#N)NCCSCc1csc(N=C(N)N)n1)NCCCSc1csc(N=C(N)N)n1 | 0.844 µM
C=CCc1cc(Br)ccc1OCCCOc1c(N)nc(N)nc1N | 0.192 µM
COc1ccc(-c2cccc(NC(=O)c3cccc(Cl)c3)c2)cc1CN1CCCC1 | 0.731 µM
COc1cc2c(cc1S(=O)(=O)c1ccc(COc3ccc(C(F)(F)F)cc3)cc1)CNCC2 | 0.746 µM
COc1cc(Cc2cnc(N)nc2N)cc(OCCCCCC(=O)O)c1OC | 0.231 µM
Cc1ccc(O)cc1Nc1ccnc2ccc(-c3csc(CNCCN4CCOCC4)n3)cc12 | 0.153 µM
COc1ccccc1N1CCN(CCCCNC(=O)c2ccc(NC(=O)c3cc4ccccc4o3)cc2)CC1 | 0.978 µM
Cc1noc(C)c1-c1cccc(CNCc2ccc(-c3ccc(-c4nc5cc(F)ccc5[nH]4)cc3)cc2)c1 | 0.212 µM
CC(C)CCN(Cc1cncn1Cc1cccc(Cl)c1)C(=O)c1cncc(-c2ccccc2)c1 | 0.762 µM
O=C(Nc1cccc(-c2ccc(-c3nc4cc(C(F)(F)F)ccc4[nH]3)s2)c1)c1ccncc1 | 0.681 µM
COc1ccc(-c2cc(C(F)(F)F)n3ncc(C(=O)Nc4cc(C)ccc4O)c3n2)cc1OC | 0.133 µM
COc1ccccc1CCN1CCC(CN(C)Cc2ccc(O)c(Cl)c2)CC1 | 0.335 µM

From ChEMBL document CHEMBL1157539, “Thousands of chemical starting points for antimalarial lead identification” (Nature, 2010)
